Laboratory results taken from paper doi:10.1101/2025.03.14.643404, “A Bivalent Molecular Glue Linking Lysine Acetyltransferases to Oncogene-induced Cell Death” (bioRxiv, 2025).
pIC50: −log10 of the molar value.

Columns and labels:
DAUDI = experiment: Cell viability, 7 days compound treatment (Cell Titer-Glo), DAUDI; assay type: cell-based; settings: Homo sapiens, 168 h, read-out: IC50 of antiproliferation
Method: Fifteen thousand cells were seeded in 100 μl of media per well of a U-bottom 96-well plate and treated with digitally dispensed drugs (Tecan D300e) for the indicated times and doses. After 96 hours, plates were centrifuged for 750 rpm for 3 minutes, and old media was exchanged for 100 μl of fresh media. Drug treatment was then repeated at the indicated doses. 72 hours following media change, cells were transferred to 96 well flat-bottom opaque plates. Viability was measured by adding 25 μL Cell Titer-Glo reagent (Promega G7570) to each well and luminescence was measured (BMG Labtech Pherastar FS). The background luminescence was subtracted, and the signal was normalized to DMSO-treated cells. IC50 measurements on cell lines were calculated using at least three biological replicates by separate cell passages. Fit of dose–response curves to data and statistical analysis was performed using GraphPad PRISM using the four-parameter log(inhibitor) vs response function.

[1] = test system: SUDHL5^TRE−3xFLAG-MYC cells; experiment: Viability of SUDHL5 TRE-3xFLAG-MYC cells, 72 h; assay type: cell-based; settings: Homo sapiens
Method: Thirty thousand cells were seeded in 100 μl of media per well of a 96-well plate and treated with drug for the indicated times and doses. A resazurin-based indicator of cell health (PrestoBlue; P50200, Thermo Fisher) was added for 1.5 h at 37°C, at which point the fluorescence ratio at 560/590 nm was recorded (Tecan Spark). The background fluorescence was subtracted, and the signal was normalized to DMSO-treated cells. IC50 measurements on cell lines were calculated using at least three biological replicates (separate cell passages). Fit of dose–response curves to data and statistical analysis was performed using GraphPad PRISM using the four-parameter log(inhibitor) vs response function.
An N-terminal fusion of 3xFLAG followed by a GGSGS linker fused to the coding sequence of human c-MYC (NM_002467.6)) was subcloned into pCW57-MCS1–2A-MCS2 (a gift from Adam Karpf (Addgene plasmid 71782; http://n2t.net/addgene:71782; RRID:Addgene_71782)).
This construct is the same used for BCL6 nanoBRET studies above. Lentivirus was produced from HEK293T cells via polyethylenimine transfection. Briefly, cells were transfected using 2nd-generation packaging plasmids and media replaced after 24 hours. […]

CBP = target: T1, CBP (Homo sapiens, UniProt Q92793); experiment: Global proteome profiling in SUDHL5, CBP abundance; assay type: cell-based; settings: SUDHL5, 10 nM, 24 hours
T1 construct: endogenous in cells; host or cells: SUDHL5
Method: (§1) SUDHL5 cells (6M cells in 6 mL RPMI-1640 media supplemented with 10% FBS and 1x pen-strep) were treated with 0.1% DMSO, 10 nM TCIP3, 10 nM Neg1, 10 nM Neg2, or 250 nM dCBP1 (1000x stocks in DMSO for final 0.1% DMSO concentration) in 3 biologically independent replicates. The cells were washed twice with TBS (50 mM Tris, pH 8.5, and 150 mM NaCl) and then stored at −80 °C until use.
(§2) Lysis was performed by first thermally denaturing the samples in residual wash buffer for 5 min at 95 °C. Fresh Lysis Buffer (8 M urea, 150 mM NaCl, and 100 mM HEPES, pH 8.0, in MS-grade water) was then added, and the lysates were homogenized using needle ultrasonication and then normalized to 30 μg of 2 mg/mL by diluting with Lysis Buffer via a Bradford protein concentration assay (Bio-Rad 5000006) in technical duplicates. […]
(§3) Samples were then desalted using SOLAμ SPE HRP Peptide Desalting columns (Thermo 60209–001) with a Positive Pressure Manifold and all MS-grade reagents. […] The samples were then reconstituted in 0.1% FA in water and then analyzed by LC-MS/MS (see below).
(§4) The reconstituted desalted peptides were then analyzed using a nanoElute 2 UHPLC (Bruker Daltonics, Bremen, Germany) coupled to a timsTOF HT (Bruker Daltonics, Bremen, Germany) via a CaptiveSpray nano-electrospray source. […]

PUMA/BBC3 = experiment: Global proteome profiling in SUDHL5, PUMA/BBC3 abundance; assay type: cell-based, human; settings: SUDHL5, 10 nM, 24 hours
Method: as §1, §2, §3, §4

T1 sequence (Q92793 whole entry): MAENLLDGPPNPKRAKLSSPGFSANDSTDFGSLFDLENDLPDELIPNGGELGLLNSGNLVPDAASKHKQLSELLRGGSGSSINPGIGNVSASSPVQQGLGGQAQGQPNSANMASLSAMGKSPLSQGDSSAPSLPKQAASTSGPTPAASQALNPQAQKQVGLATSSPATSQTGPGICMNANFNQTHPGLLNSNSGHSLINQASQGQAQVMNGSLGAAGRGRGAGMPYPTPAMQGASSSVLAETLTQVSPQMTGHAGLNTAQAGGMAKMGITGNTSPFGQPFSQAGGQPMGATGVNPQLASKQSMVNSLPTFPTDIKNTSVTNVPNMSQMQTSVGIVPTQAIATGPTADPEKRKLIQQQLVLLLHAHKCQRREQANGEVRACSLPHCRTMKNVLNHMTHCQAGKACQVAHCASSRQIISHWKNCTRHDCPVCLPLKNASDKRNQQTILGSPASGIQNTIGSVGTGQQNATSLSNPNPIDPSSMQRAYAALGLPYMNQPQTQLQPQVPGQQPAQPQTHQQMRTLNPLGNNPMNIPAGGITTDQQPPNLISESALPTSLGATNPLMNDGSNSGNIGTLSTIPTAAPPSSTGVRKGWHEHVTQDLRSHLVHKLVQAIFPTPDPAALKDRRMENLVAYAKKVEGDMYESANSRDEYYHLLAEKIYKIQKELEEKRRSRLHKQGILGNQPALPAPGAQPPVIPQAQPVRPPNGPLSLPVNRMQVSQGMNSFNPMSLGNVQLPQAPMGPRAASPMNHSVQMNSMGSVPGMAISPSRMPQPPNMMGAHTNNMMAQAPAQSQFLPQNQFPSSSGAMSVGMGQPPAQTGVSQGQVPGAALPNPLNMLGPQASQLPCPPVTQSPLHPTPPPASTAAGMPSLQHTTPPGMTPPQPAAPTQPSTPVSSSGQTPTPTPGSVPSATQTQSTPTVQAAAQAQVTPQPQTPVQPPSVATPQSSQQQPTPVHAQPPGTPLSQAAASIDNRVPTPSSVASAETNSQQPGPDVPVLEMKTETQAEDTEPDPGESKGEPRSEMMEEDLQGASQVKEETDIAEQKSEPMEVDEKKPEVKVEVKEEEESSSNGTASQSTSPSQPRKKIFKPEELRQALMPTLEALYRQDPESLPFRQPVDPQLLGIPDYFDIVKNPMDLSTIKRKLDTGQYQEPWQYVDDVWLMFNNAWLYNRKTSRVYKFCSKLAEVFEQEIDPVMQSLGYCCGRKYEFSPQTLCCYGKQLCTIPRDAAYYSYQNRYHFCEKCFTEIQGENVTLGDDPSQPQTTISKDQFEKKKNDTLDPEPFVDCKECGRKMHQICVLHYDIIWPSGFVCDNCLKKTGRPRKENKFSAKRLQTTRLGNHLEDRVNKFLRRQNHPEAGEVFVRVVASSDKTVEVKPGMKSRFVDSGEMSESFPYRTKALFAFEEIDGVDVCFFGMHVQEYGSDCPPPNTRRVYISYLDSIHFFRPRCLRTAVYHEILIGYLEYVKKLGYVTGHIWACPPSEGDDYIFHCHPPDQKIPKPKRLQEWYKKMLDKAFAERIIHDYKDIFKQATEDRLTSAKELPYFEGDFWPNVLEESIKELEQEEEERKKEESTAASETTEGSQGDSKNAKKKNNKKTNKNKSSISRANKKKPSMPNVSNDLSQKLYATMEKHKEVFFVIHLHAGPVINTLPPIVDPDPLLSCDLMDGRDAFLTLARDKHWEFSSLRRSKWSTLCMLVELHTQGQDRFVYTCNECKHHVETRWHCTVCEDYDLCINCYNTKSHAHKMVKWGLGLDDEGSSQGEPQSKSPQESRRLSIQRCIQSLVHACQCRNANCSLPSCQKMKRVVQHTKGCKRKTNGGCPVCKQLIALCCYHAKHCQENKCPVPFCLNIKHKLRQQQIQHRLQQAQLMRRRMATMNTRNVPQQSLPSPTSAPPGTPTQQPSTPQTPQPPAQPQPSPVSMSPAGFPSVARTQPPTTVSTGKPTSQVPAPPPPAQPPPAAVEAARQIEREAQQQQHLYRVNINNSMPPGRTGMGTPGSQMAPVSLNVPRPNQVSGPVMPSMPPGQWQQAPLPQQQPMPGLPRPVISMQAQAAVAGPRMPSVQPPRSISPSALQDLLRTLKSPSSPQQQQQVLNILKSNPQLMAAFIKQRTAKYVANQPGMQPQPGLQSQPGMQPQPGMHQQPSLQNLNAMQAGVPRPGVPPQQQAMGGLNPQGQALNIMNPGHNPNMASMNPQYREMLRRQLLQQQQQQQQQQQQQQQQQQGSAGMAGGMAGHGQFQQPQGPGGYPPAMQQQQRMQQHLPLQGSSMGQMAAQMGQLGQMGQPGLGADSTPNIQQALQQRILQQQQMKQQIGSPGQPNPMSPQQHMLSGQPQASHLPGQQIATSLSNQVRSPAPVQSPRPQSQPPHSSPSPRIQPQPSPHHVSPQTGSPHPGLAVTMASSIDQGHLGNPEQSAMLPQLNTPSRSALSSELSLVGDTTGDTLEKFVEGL

- pIC50 (DAUDI): 8.16
- pIC50 ([1]; SU-DHL-5, + dox (1 μg/mL doxycycline 24 h prior)): ~8.12
- pIC50 ([1]; SU-DHL-5, − dox): ~8.70
- CBP protein abundance log2(fold change) (CBP): 0.58
SMILES: CNC(=O)COc1cc2cc(Nc3nc(N4CCC(C(=O)N5CCN(CCC(=O)N6CCC(n7nc(N8CCCc9cc(-c%10cnn(C)c%10)c(C(F)F)cc98)c8c7CCN(C(=O)NC)C8)CC6)CC5)CC4)ncc3Cl)cc(OC)c2n(C)c1=O [TCIP3]
- PUMA/BBC3 log2(TCIP3 / DMSO fold change) (PUMA/BBC3): 0.72
